# PubChem BioAssay AID330 (DTP/NCI, 2004)
# Several values for one entry are separate records, joined by “and”; a condition that tells them apart may be missing. Equal values may be shown once. Toxic doses and inconclusive results are not listed. Peptide text beside a SMILES is read from it.
# System: P388 leukemia ip, CD2F1 mice, survival T/C
# Test: NCI In Vivo Anticancer Drug Screen. Data for tumor model P388 Leukemia (intraperitoneal) in CD2F1 (CDF1) mice
# Conditions: endpoint: median survival time, higher = longer survival
# Summary of the method: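 Mice carrying the transplanted tumor received test compound or vehicle. Survival was recorded in each group, and the value is the treated-group measurement divided by that of the vehicle-treated control group.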
# [1] = dose: 60.0 mg/kg/injection, schedule: Q01DX005 (ip), vehicle: Klucel (hydroxypropylcellulose) (HPC)
# [2] = dose: 120.0 mg/kg/injection, schedule: Q01DX005 (ip), vehicle: Klucel (hydroxypropylcellulose) (HPC)
# [3] = dose: 100.0 mg/kg/injection, schedule: Q04DX002 (ip), vehicle: saline with Tween-80
# [4] = dose: 200.0 mg/kg/injection, schedule: Q04DX002 (ip), vehicle: saline with Tween-80
# [5] = dose: 50.0 mg/kg/injection, schedule: Q01DX009 (ip), vehicle: Klucel (hydroxypropylcellulose) (HPC)
# [6] = dose: 200.0 mg/kg/injection, schedule: Q01DX009 (ip), vehicle: Klucel (hydroxypropylcellulose) (HPC)
# [7] = dose: 50.0 mg/kg/injection, schedule: Q01DX005 (ip), vehicle: saline with Tween-80
# [8] = dose: 100.0 mg/kg/injection, schedule: Q01DX005 (ip), vehicle: saline with Tween-80
# [9] = dose: 200.0 mg/kg/injection, schedule: Q01DX005 (ip), vehicle: saline with Tween-80
# [10] = dose: 100.0 mg/kg/injection, schedule: Q01DX009 (ip), vehicle: saline
# [11] = dose: 50.0 mg/kg/injection, schedule: Q01DX009 (ip), vehicle: saline with Tween-80
# [12] = dose: 100.0 mg/kg/injection, schedule: Q01DX009 (ip), vehicle: saline with Tween-80
# [13] = dose: 200.0 mg/kg/injection, schedule: Q01DX009 (ip), vehicle: saline with Tween-80
structure (smiles),measurement,setting,value
C=C1C(=O)OC2/C=C(\C)CC(O)/C=C(\C)CC(OC(=O)C3(CO)OC3C)C12 (stereo not drawn),T/C,"dose: 25.0 mg/kg/injection, schedule: Q01DX001 (ip), vehicle: Klucel (hydroxypropylcellulose) (HPC)",113 % of control
same,T/C,"dose: 50.0 mg/kg/injection, schedule: Q01DX001 (ip), vehicle: Klucel (hydroxypropylcellulose) (HPC)",101 % of control
same,T/C,"dose: 100.0 mg/kg/injection, schedule: Q01DX001 (ip), vehicle: Klucel (hydroxypropylcellulose) (HPC)",108 % of control
CCCCNc1cc(C(F)(F)F)cc(N)c1N,T/C,"dose: 50.0 mg/kg/injection, schedule: Q01DX005 (ip), vehicle: saline + Tween-80 + alcohol",105 % of control
same,T/C,"dose: 100.0 mg/kg/injection, schedule: Q01DX005 (ip), vehicle: saline + Tween-80 + alcohol",108 % of control
same,T/C,"dose: 200.0 mg/kg/injection, schedule: Q01DX005 (ip), vehicle: saline + Tween-80 + alcohol",109 % of control
Cc1cc(C)n2[nH]c(=O)cc2n1,T/C,"dose: 25.0 mg/kg/injection, schedule: Q01DX009 (ip), vehicle: suspension in saline",99 % of control
same,T/C,"dose: 50.0 mg/kg/injection, schedule: Q01DX009 (ip), vehicle: suspension in saline",97 % of control
same,T/C,"dose: 100.0 mg/kg/injection, schedule: Q01DX009 (ip), vehicle: suspension in saline",97 % of control
same,T/C,"dose: 200.0 mg/kg/injection, schedule: Q01DX009 (ip), vehicle: suspension in saline",98 % of control
COc1cc(/C=N/n2c(-c3ccccc3)nc3ccccc3c2=O)cc(Br)c1O,T/C,[1],89 % of control
same,T/C,[2],87 % of control
same,T/C,"dose: 240.0 mg/kg/injection, schedule: Q01DX005 (ip), vehicle: Klucel (hydroxypropylcellulose) (HPC)",87 % of control
COc1cccc(N2N=NCC2O)c1 (stereo not drawn),T/C,"dose: 60.0 mg/kg/injection, schedule: Q01DX005 (ip), vehicle: saline with Tween-80",104 % of control
same,T/C,"dose: 120.0 mg/kg/injection, schedule: Q01DX005 (ip), vehicle: saline with Tween-80",102 % of control
same,T/C,"dose: 240.0 mg/kg/injection, schedule: Q01DX005 (ip), vehicle: saline with Tween-80",104 % of control
Clc1nc2n[nH]nc2nc1Cl,T/C,"dose: 3.13 mg/kg/injection, schedule: Q04DX003 (ip), vehicle: saline",100 % of control
same,T/C,"dose: 6.25 mg/kg/injection, schedule: Q04DX003 (ip), vehicle: saline",90 % of control
same,T/C,"dose: 12.5 mg/kg/injection, schedule: Q04DX003 (ip), vehicle: saline",95 % of control
COc1ccc2[nH]c3cc4ccncc4cc3c2c1,T/C,"dose: 25.0 mg/kg/injection, schedule: Q04DX002 (ip), vehicle: saline with Tween-80",122 % of control
same,T/C,"dose: 50.0 mg/kg/injection, schedule: Q04DX002 (ip), vehicle: saline with Tween-80",97 % of control
same,T/C,[3],95 % of control
same,T/C,[4],97 % of control
CC1CC(c2ccccc2)C(c2ccccc2Cl)C(=O)O1 (stereo not drawn),T/C,"dose: 100.0 mg/kg/injection, schedule: Q04DX002 (ip), vehicle: Klucel (hydroxypropylcellulose) (HPC)",101 % of control
same,T/C,"dose: 200.0 mg/kg/injection, schedule: Q04DX002 (ip), vehicle: Klucel (hydroxypropylcellulose) (HPC)",96 % of control
same,T/C,"dose: 400.0 mg/kg/injection, schedule: Q04DX002 (ip), vehicle: Klucel (hydroxypropylcellulose) (HPC)",96 % of control
CC(C)=N/N=C(/N)[Se],T/C,"dose: 3.12 mg/kg/injection, schedule: Q01DX009 (ip), vehicle: saline with Tween-80",95 % of control
same,T/C,"dose: 6.25 mg/kg/injection, schedule: Q01DX009 (ip), vehicle: saline with Tween-80",103 % of control
same,T/C,"dose: 12.5 mg/kg/injection, schedule: Q01DX009 (ip), vehicle: saline with Tween-80",97 % of control
O=C(CNN1C(=O)CSC1=Nc1cccc2ccccc12)c1cccc2c1Nc1ccccc1S2,T/C,[5],102 % of control
same,T/C,"dose: 100.0 mg/kg/injection, schedule: Q01DX009 (ip), vehicle: Klucel (hydroxypropylcellulose) (HPC)",102 % of control
same,T/C,[6],98 % of control
CC(C)CC(N)C(=O)NC(CCCN=C(N)N)C(=O)NC(CCCN=C(N)N)C(=O)NC(C)C(=O)NC(CO)C(=O)NC(CC(C)C)C(=O)NCC(=O)O (stereo not drawn) (H-LRRASLG-OH; configuration not given here),T/C,"dose: 2.25 mg/kg/injection, schedule: Q01DX009 (ip), vehicle: Klucel (hydroxypropylcellulose) (HPC)",103 % of control
same,T/C,"dose: 4.5 mg/kg/injection, schedule: Q01DX009 (ip), vehicle: Klucel (hydroxypropylcellulose) (HPC)",100 % of control
same,T/C,"dose: 9.0 mg/kg/injection, schedule: Q01DX009 (ip), vehicle: Klucel (hydroxypropylcellulose) (HPC)",100 % of control
same,T/C,"dose: 18.0 mg/kg/injection, schedule: Q01DX009 (ip), vehicle: Klucel (hydroxypropylcellulose) (HPC)",106 % of control
same,T/C,"dose: 36.0 mg/kg/injection, schedule: Q01DX009 (ip), vehicle: Klucel (hydroxypropylcellulose) (HPC)",106 % of control
COC1C(C2CC(=O)NC(=O)C2)OC2OC(C)(C)OC21 (stereo not drawn),T/C,[7],104 % of control
same,T/C,[8],107 % of control
same,T/C,[9],104 % of control
C1CCNCC1.COc1ccccc1C(=O)[CH-]C(=O)C(F)(F)F.COc1ccccc1C(=O)[CH-]C(=O)C(F)(F)F.COc1ccccc1C(=O)[CH-]C(=O)C(F)(F)F.COc1ccccc1C(=O)[CH-]C(=O)C(F)(F)F.[Eu+3],T/C,[5],94 % of control
same,T/C,[6],91 % of control
O=S(O)OC1(O)CCCCC1,T/C,"dose: 100.0 mg/kg/injection, schedule: Q04DX002 (ip), vehicle: saline",110 % of control
same,T/C,"dose: 200.0 mg/kg/injection, schedule: Q04DX002 (ip), vehicle: saline",95 % of control
same,T/C,"dose: 400.0 mg/kg/injection, schedule: Q04DX002 (ip), vehicle: saline",100 % of control
O=C(O)[C@@H]1c2ccccc2-c2ccccc2[C@H]1C(=O)O,T/C,[7],98 % of control
same,T/C,[8],95 % of control
same,T/C,[9],107 % of control
COc1ccc(NN=O)nc1Br,T/C,"dose: 3.12 mg/kg/injection, schedule: Q01DX009 (ip), vehicle: saline",108 % of control
same,T/C,"dose: 6.25 mg/kg/injection, schedule: Q01DX009 (ip), vehicle: saline",108 % of control
same,T/C,"dose: 12.5 mg/kg/injection, schedule: Q01DX009 (ip), vehicle: saline",108 % of control and 109 % of control
same,T/C,"dose: 25.0 mg/kg/injection, schedule: Q01DX009 (ip), vehicle: saline",110 % of control and 120 % of control
same,T/C,[10],157 % of control
O=[N+]([O-])[O-].OCCNCCNCC[OH2+].OCCNCCNCC[OH2+].[Co+2],T/C,"dose: 50.0 mg/kg/injection, schedule: Q01DX009 (ip), vehicle: saline",95 % of control
same,T/C,[10],104 % of control
same,T/C,"dose: 200.0 mg/kg/injection, schedule: Q01DX009 (ip), vehicle: saline",103 % of control
CN1C=C([N+](=O)[O-])C(N2CCOCC2)C1N1CCOCC1 (stereo not drawn),T/C,[1],96 % of control
same,T/C,[2],114 % of control
CN1C2CCCC1CC1(C2)NC(=O)NC1=O (stereo not drawn),T/C,"dose: 50.0 mg/kg/injection, schedule: Q01DX009 (ip), vehicle: water",99 % of control
same,T/C,"dose: 100.0 mg/kg/injection, schedule: Q01DX009 (ip), vehicle: water",100 % of control
O=C1OCC23CCC4C1C42CC1(CC3)OCCO1 (stereo not drawn),T/C,"dose: 50.0 mg/kg/injection, schedule: Q01DX005 (ip), vehicle: saline",99 % of control
same,T/C,"dose: 100.0 mg/kg/injection, schedule: Q01DX005 (ip), vehicle: saline",101 % of control
same,T/C,"dose: 200.0 mg/kg/injection, schedule: Q01DX005 (ip), vehicle: saline",98 % of control
O=C(O)C1CCCCC1Cc1ccccc1 (stereo not drawn),T/C,[11],109 % of control
same,T/C,[12],98 % of control
same,T/C,[13],93 % of control
COC(=O)c1nc(SC)[nH]c1CC#N,T/C,[3],108 % of control
same,T/C,[4],98 % of control
same,T/C,"dose: 400.0 mg/kg/injection, schedule: Q04DX002 (ip), vehicle: saline with Tween-80",99 % of control
CCOc1cccc(Cl)n1,T/C,[11],104 % of control
same,T/C,[12],100 % of control
same,T/C,[13],90 % of control
NCCOc1c2occc2cc2ccc(=O)oc12,T/C,"dose: 100.0 mg/kg/injection, schedule: Q01DX001 (ip), vehicle: saline",110 % of control
Cn1c2cc(O)cc(O)c2c(=O)c2cccc([N+](=O)[O-])c21,T/C,"dose: 100.0 mg/kg/injection, schedule: Q01DX001 (ip), vehicle: saline with Tween-80",104 % of control
same,T/C,"dose: 200.0 mg/kg/injection, schedule: Q01DX001 (ip), vehicle: saline with Tween-80",103 % of control
same,T/C,"dose: 400.0 mg/kg/injection, schedule: Q01DX001 (ip), vehicle: saline with Tween-80",101 % of control
O=c1[nH]c2ccccc2nc1N=Nc1ccccc1,T/C,[7],96 % of control
same,T/C,[8],96 % of control
